17 compounds from PubChem BioAssay AID220 (DTP/NCI, 2004) can be followed below.

Structures are written as SMILES. Where “and” joins values, the source holds several entries; their conditions need not be identical. Equal entries are not always repeated. Inconclusive results are not listed. Starred links: 1 amine or outer side, 2 acyl side, 3 side chain; linkers in the order of their positions; H or OH if unused. Non-standard residues stand in square brackets, D forms with d. Residues, ends and D or L forms follow the SMILES beside them. *: point of attachment. X2 = CCC(=O)CC1CC(C)CC(C(=O)[*:2])N1[*:1]; X1 = CCCCCCCCC(C)C(=O)*; Aib = CC(C)(N)C(=O)O; X3 = CC(CN(C)CCO)N*

In the experiment the test system is CD8F1 mice, subcutaneous mammary adenocarcinoma, T/C%. The experiment is described as follows: NCI In Vivo Anticancer Drug Screen. Data for tumor model Mammary Adenocarcinoma CD8F1 (subcutaneous) in CD8F1. The settings on record: higher = larger tumour. On the procedure:
The antitumor activity of compounds was measured in mice bearing transplantable tumors. Survival or tumor size were measured and the results are expressed as the measurement made in the treated group (T) divided by the measurement made in the vehicle treated control group (C). The tumor model used in this assay is Mammary Adenocarcinoma CD8F1 (subcutaneous) in CD8F1

Setting [1] is: endpoint: median tumor weight change, dose: 62.5 mg/kg/injection, schedule: Q01DX001 (ip), vehicle: Klucel (hydroxypropylcellulose) (HPC).
[2] abbreviates: endpoint: median tumor weight (est.), dose: 100.0 mg/kg/injection, schedule: Q07DX005 (ip), vehicle: Klucel (hydroxypropylcellulose) (HPC).
[3] abbreviates: endpoint: median tumor weight (est.), dose: 25.0 mg/kg/injection, schedule: Q07DX005 (ip), vehicle: saline.
The mark [4] stands for this setting: endpoint: median tumor weight change, dose: 125.0 mg/kg/injection, schedule: Q01DX001 (ip), vehicle: Klucel (hydroxypropylcellulose) (HPC).
The mark [5] stands for this setting: endpoint: median tumor weight change, dose: 250.0 mg/kg/injection, schedule: Q01DX001 (ip), vehicle: Klucel (hydroxypropylcellulose) (HPC).

As to `O=S(=O)(O)O`, under setting [1], the T/C is 101 % of control.

As to `CN(C(=S)S(=O)(=O)C12CC3CC(CC(C3)C1)C2)c1ccccc1`, the T/C runs as follows: (endpoint: median tumor weight (est.), dose: 6.25 mg/kg/injection, schedule: Q07DX005 (ip), vehicle: Klucel (hydroxypropylcellulose) (HPC)) 66 % of control; (endpoint: median tumor weight (est.), dose: 12.5 mg/kg/injection, schedule: Q07DX005 (ip), vehicle: Klucel (hydroxypropylcellulose) (HPC)) 84 % of control; (endpoint: median tumor weight (est.), dose: 25.0 mg/kg/injection, schedule: Q07DX005 (ip), vehicle: Klucel (hydroxypropylcellulose) (HPC)) 81 % of control; (endpoint: median tumor weight (est.), dose: 50.0 mg/kg/injection, schedule: Q07DX005 (ip), vehicle: Klucel (hydroxypropylcellulose) (HPC)) 77 % of control; under setting [2], 61 % of control.

`OCCCN1CCCCC1CO` (centres undefined): the T/C is, setting by setting: (endpoint: median tumor weight change, dose: 125.0 mg/kg/injection, schedule: Q01DX001 (ip), vehicle: saline) 78 % of control; (endpoint: median tumor weight change, dose: 250.0 mg/kg/injection, schedule: Q01DX001 (ip), vehicle: saline) 103 % of control; (endpoint: median tumor weight change, dose: 500.0 mg/kg/injection, schedule: Q01DX001 (ip), vehicle: saline) 105 % of control; (endpoint: median tumor weight change, dose: 1000.0 mg/kg/injection, schedule: Q01DX001 (ip), vehicle: saline) 103 % of control.

As to `[Cl][Mn][Cl]`, the T/C is 111 % of control (endpoint: median tumor weight (est.), dose: 64.0 mg/kg/injection, schedule: Q07DX005 (ip), vehicle: saline) and 66 % of control (endpoint: median tumor weight (est.), dose: 128.0 mg/kg/injection, schedule: Q07DX005 (ip), vehicle: saline).

Regarding `CC/C(=C(/CC)c1ccc(O)cc1)c1ccc(O)cc1`, the T/C (endpoint: median tumor weight (est.), dose: 12.5 mg/kg/injection, schedule: Q07DX005 (ip), vehicle: water) is 70 % of control; the T/C (endpoint: median tumor weight (est.), dose: 25.0 mg/kg/injection, schedule: Q07DX005 (ip), vehicle: water) was 66 % of control; the T/C (endpoint: median tumor weight (est.), dose: 50.0 mg/kg/injection, schedule: Q07DX005 (ip), vehicle: water) was 111 % of control; the T/C (endpoint: median tumor weight (est.), dose: 100.0 mg/kg/injection, schedule: Q07DX005 (ip), vehicle: water) is 101 % of control; the T/C (endpoint: median tumor weight (est.), dose: 200.0 mg/kg/injection, schedule: Q07DX005 (ip), vehicle: water) was 49 % of control.

Consider `Cc1cc(NS(=O)(=O)c2ccc(N=Nc3cc(N=Nc4ccc(S(=O)(=O)Nc5cc(C)nc(C)n5)cc4)c4c(NC(=O)C(Cl)Cl)cccc4c3OC(=O)C(Cl)Cl)cc2)nc(C)n1` (tested in a mixture with another compound), for which the T/C was 167 % of control (endpoint: median tumor weight change, dose: 250.0 mg/kg/injection, schedule: Q01DX001 (ip), vehicle: suspension in saline) and 65 % of control (endpoint: median tumor weight change, dose: 500.0 mg/kg/injection, schedule: Q01DX001 (ip), vehicle: suspension in saline).

Turning to `CCCCNCCCNCCCNC(=O)c1csc(-c2csc(CCNC(=O)C(NC(=O)C(C)C(O)C(C)NC(=O)C(NC(=O)c3nc(C(CC(N)=O)NCC(N)C(N)=O)nc(N)c3C)C(OC3OC(CO)C(O)C(O)C3OC3OC(CO)C(O)C(OC(N)=O)C3O)c3cnc[nH]3)C(C)O)n2)n1` (centres undefined), the T/C (endpoint: median tumor weight (est.), dose: 4.0 mg/kg/injection, schedule: Q07DX005 (ip), vehicle: saline) is 16 % of control; the T/C (endpoint: median tumor weight (est.), dose: 8.0 mg/kg/injection, schedule: Q07DX005 (ip), vehicle: saline) was 10 % of control; the T/C (endpoint: median tumor weight (est.), dose: 16.0 mg/kg/injection, schedule: Q07DX005 (ip), vehicle: saline) is 16 % of control.

Turning to `NC(CSC(c1ccccc1)(c1ccccc1)c1ccccc1)C(=O)O` (centres undefined), the T/C reads like this: (endpoint: median tumor weight (est.), dose: 32.0 mg/kg/injection, schedule: Q07DX005 (ip), vehicle: Klucel (hydroxypropylcellulose) (HPC)) 101 % of control; (endpoint: median tumor weight (est.), dose: 64.0 mg/kg/injection, schedule: Q07DX005 (ip), vehicle: Klucel (hydroxypropylcellulose) (HPC)) 71 % of control; (endpoint: median tumor weight (est.), dose: 128.0 mg/kg/injection, schedule: Q07DX005 (ip), vehicle: Klucel (hydroxypropylcellulose) (HPC)) 74 % of control.

`c1cc(-c2cc3ccc(C4=NCCN4)cc3[nH]2)ccc1C1=NCCN1`: the T/C reads like this: (endpoint: median tumor weight (est.), dose: 6.25 mg/kg/injection, schedule: Q07DX005 (ip), vehicle: suspension in saline) 103 % of control; (endpoint: median tumor weight (est.), dose: 12.5 mg/kg/injection, schedule: Q07DX005 (ip), vehicle: suspension in saline) 60 % of control; under setting [3], 45 % of control; (endpoint: median tumor weight (est.), dose: 25.0 mg/kg/injection, schedule: Q07DX005 (ip), vehicle: suspension in saline) 164 % of control; (endpoint: median tumor weight change, dose: 62.0 mg/kg/injection, schedule: Q01DX001 (ip), vehicle: suspension in saline) 99 % of control.

Consider `Cn1cnc([N+](=O)[O-])c1SCC(=O)O`, for which the T/C is, setting by setting: under setting [2], 100 % of control; (endpoint: median tumor weight (est.), dose: 200.0 mg/kg/injection, schedule: Q07DX005 (ip), vehicle: Klucel (hydroxypropylcellulose) (HPC)) 107 % of control; (endpoint: median tumor weight (est.), dose: 400.0 mg/kg/injection, schedule: Q07DX005 (ip), vehicle: Klucel (hydroxypropylcellulose) (HPC)) 166 % of control; (endpoint: median tumor weight (est.), dose: 800.0 mg/kg/injection, schedule: Q07DX005 (ip), vehicle: Klucel (hydroxypropylcellulose) (HPC)) 65 % of control; under setting [1], 75 % of control; under setting [4], 72 % of control. The T/C under setting [5] is 76 % of control; the T/C (endpoint: median tumor weight change, dose: 500.0 mg/kg/injection, schedule: Q01DX001 (ip), vehicle: Klucel (hydroxypropylcellulose) (HPC)) is 74 % of control; the T/C (endpoint: median tumor weight change, dose: 1000.0 mg/kg/injection, schedule: Q01DX001 (ip), vehicle: Klucel (hydroxypropylcellulose) (HPC)) was 60 % of control; the T/C (endpoint: median tumor weight change, dose: 2000.0 mg/kg/injection, schedule: Q01DX001 (ip), vehicle: Klucel (hydroxypropylcellulose) (HPC)) is 68 % of control.

On to `COc1ccc2[nH]c3ccc4cc[n+](CCN5CCC(C6CCN(CC[n+]7ccc8ccc9[nH]c%10ccc(OC)cc%10c9c8c7)CC6)CC5)cc4c3c2c1`, for which the T/C under setting [1] was 58 % of control and the T/C under setting [4] is 68 % of control.

In the case of `CCCCCCCCC(C)C(=O)N1CCCC1C(=O)N1C(CC(=O)CC)CC(C)CC1C(=O)NC(C)C(=O)NC(C)(C)C(=O)NC(C)(C)C(=O)NC(C(=O)NC(C)C(=O)NC(C)(C)C(=O)NC(C)(C)C(=O)NC(C)CN(C)CCO)C(C)CC` (centres undefined) (X1-P[X2]A[Aib][Aib]IA[Aib][Aib]-X3; configuration not given here), the T/C reads like this: (endpoint: median tumor weight change, dose: 3.0 mg/kg/injection, schedule: Q01DX001 (ip), vehicle: saline with Tween-80) 100 % of control; (endpoint: median tumor weight change, dose: 3.12 mg/kg/injection, schedule: Q01DX001 (ip), vehicle: other) 123 % of control.

Regarding `CCN(CC)CCNc1ccc(C)c2sc3ccccc3c(=O)c12`, the T/C was 156 % of control (endpoint: median tumor weight (est.), dose: 12.5 mg/kg/injection, schedule: Q07DX005 (ip), vehicle: saline); 198 % of control under setting [3]; 166 % of control (endpoint: median tumor weight (est.), dose: 50.0 mg/kg/injection, schedule: Q07DX005 (ip), vehicle: saline); 76 % of control (endpoint: median tumor weight (est.), dose: 100.0 mg/kg/injection, schedule: Q07DX005 (ip), vehicle: saline); 42 % of control (endpoint: median tumor weight (est.), dose: 200.0 mg/kg/injection, schedule: Q07DX005 (ip), vehicle: saline).

On to `COC(=O)Nc1cn2cc(C(=O)c3cccs3)ccc2n1`, for which the T/C under setting [1] was 99 % of control, the T/C under setting [4] is 71 % of control and the T/C under setting [5] is 69 % of control.

Consider `C=C(OP(=O)(OC)OC)Sc1ccccc1C`, for which the T/C (endpoint: median tumor weight change, dose: 0.38 mg/kg/injection, schedule: Q01DX001 (ip), vehicle: Klucel (hydroxypropylcellulose) (HPC)) is 80 % of control; the T/C (endpoint: median tumor weight change, dose: 0.75 mg/kg/injection, schedule: Q01DX001 (ip), vehicle: Klucel (hydroxypropylcellulose) (HPC)) is 96 % of control; the T/C (endpoint: median tumor weight change, dose: 1.5 mg/kg/injection, schedule: Q01DX001 (ip), vehicle: Klucel (hydroxypropylcellulose) (HPC)) was 88 % of control.

With `CCN(CC)CCCNc1nccc2c(C)c3[nH]c4ccncc4c3cc12`, the T/C (endpoint: median tumor weight change, dose: 25.0 mg/kg/injection, schedule: Q01DX001 (ip), vehicle: other) is 29 % of control and 32 % of control.

Consider `O=C(O)CC(=O)O.[NH-]C1CCCCC1[NH-].[Pt+2]` (centres undefined), for which the T/C is, setting by setting: (endpoint: median tumor weight (est.), dose: 20.0 mg/kg/injection, schedule: Q07DX005 (ip), vehicle: dextrose) 14 % of control; (endpoint: median tumor weight (est.), dose: 40.0 mg/kg/injection, schedule: Q07DX005 (ip), vehicle: dextrose) 38 % of control; (endpoint: median tumor weight (est.), dose: 80.0 mg/kg/injection, schedule: Q07DX005 (ip), vehicle: dextrose) 67 % of control.
